Earlier results, collected in patent publication US10137126B2, “Method of preparing very slightly soluble drug with solid dosage form” (YUNG SHIN PHARM. IND. CO., LTD., priority 2015, dated 2018).

Row | aqueous solubility | Compound
1 | 1 g/1,000 ml | CCC(C)n1ncn(-c2ccc(N3CCN(c4ccc(OCC5COC(Cn6cncn6)(c6ccc(Cl)cc6Cl)O5)cc4)CC3)cc2)c1=O (stereo not drawn) [Itraconazole]
2 | 2 g/1,000,000 ml | CN1CC(=O)N2[C@H](c3ccc4c(c3)OCO4)c3[nH]c4ccccc4c3C[C@@H]2C1=O [Tadalafil]
3 | 1 g/10,000 ml | C[C@@H](c1ncncc1F)[C@](O)(Cn1cncn1)c1ccc(F)cc1F [Voriconazole]
